# Patent US20230167505A1, “CIRCULATING TUMOR DNA AS A BIOMARKER FOR LEUKEMIA TREATMENT” (Cardiff Oncology, Inc., priority 2020, published 2023)
# Where two headings read alike, the source gives them in different places.
# Assays:
# Assay type in all cases: in vivo, human
# [1] = tested on: relapsed or refractory (R/R) AML; test: Phase 1b antileukemic activity: bone marrow evaluation, response by modified International Working Group criteria 2003; parameters: key to Clinical Response: NR = Non-responder; Responders were defined as patients achieving complete response (BM blasts <5%) with or without count recovery (CR+CRi); conditions: for BM % Blasts Log2(C1/C0): end of cycle 1 vs screening
# Description: Treatment plan and study design: […] Antileukemic activity: […] Response to treatment was evaluated by the investigator using the modified International Working Group criteria 2003, detailed in Table 2. Antileukemic activity was assessed in all patients evaluable for DLTs.
# [2] = Pharmacokinetics: onvansertib plasma concentrations by LC/MS-MS; conditions: for Cmax / Tmax / AUC(0-t) / half-life: human, plasma, oral; for AUC(0-t): read-out: AUC(0-24)
# Description: Pharmacokinetics: Blood samples were collected from patients for pharmacokinetic analysis on days 1 and 5 at predose; at 0.5, 1, 2, 3, 4, 8, and 24 hours after administration of onvansertib; and once on days 8, 15, and 22. Onvansertib plasma concentrations were determined by LC/MS-MS at PRA Bioanalytical Laboratory. The pharmacokinetics parameters, including maximum plasma concentration (Cmax), time to maximum plasma concentration (tmax), half-life (t1/2), and AUC, were calculated for each patient using Phoenix WinNonlin.
# [3] = tested on: PLK1 substrate, TCTP; test: Target engagement in circulating blasts (pTCTP/TCTP in PBMCs, predose vs 3 hours postdose)
# Description: Samples were analyzed with a FACSCanto II (BD Biosciences).
# Protein extract preparation and immunoblot: Protein extracts were prepared from PBMCs isolated from CellSave tube and from HL-60 cells using M-PER buffer with Protease and Phosphatase Inhibitor Cocktails (Thermo Fisher Scientific). Protein concentration was measured with the Pierce BCA Protein Assay Kit (Thermo Fisher Scientific). Western blots were performed as Simple Western Assays using the Wes System (ProteinSimple), a combination of capillary electrophoresis and immunodetection techniques, following the manufacturer's protocols. Primary antibodies were purchased from Cell Signaling Technology: phospho-TCTP-Ser46 (#5251) and TCTP (#5128). Quantitative analysis was performed using Compass Software (ProteinSimple). Signal intensity (area) of pTCTP was normalized to the peak area of TCTP and reported as pTCTP/TCTP or % pTCTP.
# Target engagement in blasts was determined by measuring relative pTCTP/TCTP protein levels in PBMCs isolated from patient blood prior to and 3 hours after the first dose of onvansertib (FIG. 8C).
# [4] = 20 patients chosen for ctDNA analysis
# [5] = 12 mg/m^2, Cycle 1 day 5, mean ± SD, 12 mg/m^2 + Decitabine, 4 patients
# [6] = 12 mg/m^2, Cycle 1 day 5, mean ± SD, 12 mg/m^2 + LDAC, 3 patients
# [7] = 18 mg/m^2, Cycle 1 day 5, mean ± SD, 18 mg/m^2 + Decitabine, 3 patients
# [8] = 18 mg/m^2, Cycle 1 day 5, mean ± SD, 18 mg/m^2 + LDAC, 3 patients
# [9] = 40 mg/m^2, Cycle 1 day 5, mean ± SD, 40 mg/m^2 + LDAC, 3 patients
# [10] = 60 mg/m^2, Cycle 1 day 5, mean ± SD, 60 mg/m^2 + Decitabine, 3 patients
# [11] = 60 mg/m^2, Cycle 1 day 5, mean ± SD, 60 mg/m^2 + LDAC, 5 patients
# [12] = 90 mg/m^2, Cycle 1 day 5, mean ± SD, 90 mg/m^2 + Decitabine, 6 patients
# [13] = Cycle 1 day 5, mean ± SD, 27 mg/m^2 + Decitabine, 3 patients
# [14] = Cycle 1 day 5, mean ± SD, 27 mg/m^2 + LDAC, 3 patients
# [15] = Cycle 1 day 5, mean ± SD, 40 mg/m^2 + Decitabine, 4 patients
smiles,measurement,setting,value
"CN1CCN(c2ccc(OC(F)(F)F)c(Nc3ncc4c(n3)-c3c(c(C(N)=O)nn3CCO)CC4)c2)CC1 [onvansertib, 1-(2-hydroxyethyl)-8-{[5-(4-methylpiperazin-1-yl)-2-(trifluoromethoxy)phenyl]amino}-4,5-dihydro-1H-pyrazolo [4,3-h] quinazoline-3-carboxamide]","Non-Responders, (%)",[1]; [4],70%
same,"Responders, (%)",[1]; [4],30%
same,patients with PR,[1]; LDAC arm,one
same,patients with ≥50% reduction in bone marrow blasts,"[1]; LDAC arm, 12 patients",25%
same,CRi rate,"[1]; LDAC arm, 15 patients",7%
same,Clinical Response,[1]; Patient 01-021,NR
same,BM % Blasts Log2(C1/C0),[1]; Patient 01-021,−0.8625
same,Clinical Response,[1]; Patient 01-024,NR
same,BM % Blasts Log2(C1/C0),[1]; Patient 01-024,−0.3219
same,Clinical Response,[1]; Patient 03-037,Responder
same,BM % Blasts Log2(C1/C0),[1]; Patient 03-037,0.8301
same,Clinical Response,[1]; Patient 05-016,NR
same,BM % Blasts Log2(C1/C0),[1]; Patient 05-016,3.0704
same,Clinical Response,[1]; Patient 05-030,Responder
same,BM % Blasts Log2(C1/C0),[1]; Patient 05-030,−2.0000
same,Clinical Response,[1]; Patient 05-043,NR
same,BM % Blasts Log2(C1/C0),[1]; Patient 05-043,−0.4150
same,Clinical Response,[1]; Patient 07-009,Responder
same,BM % Blasts Log2(C1/C0),[1]; Patient 07-009,−0.0468
same,Clinical Response,[1]; Patient 07-013,NR
same,Clinical Response,[1]; Patient 07-018,NR
same,Clinical Response,[1]; Patient 07-033,NR
same,Clinical Response,[1]; Patient 07-035,Responder
same,BM % Blasts Log2(C1/C0),[1]; Patient 07-035,−1.7370
same,Clinical Response,[1]; Patient 07-036,NR
same,BM % Blasts Log2(C1/C0),[1]; Patient 07-036,−1.0000
same,Clinical Response,[1]; Patient 08-027,NR
same,BM % Blasts Log2(C1/C0),[1]; Patient 08-027,−0.1043
same,Clinical Response,[1]; Patient 08-058,Responder
same,BM % Blasts Log2(C1/C0),[1]; Patient 08-058,0.9329
same,Clinical Response,[1]; Patient 09-026,NR
same,BM % Blasts Log2(C1/C0),[1]; Patient 09-026,0.3785
same,Clinical Response,[1]; Patient 09-032,NR
same,BM % Blasts Log2(C1/C0),[1]; Patient 09-032,0.1454
same,Clinical Response,[1]; Patient 09-064,Responder
same,BM % Blasts Log2(C1/C0),[1]; Patient 09-064,−3.9069
same,Clinical Response,[1]; Patient 11-019,NR
same,BM % Blasts Log2(C1/C0),[1]; Patient 11-019,0.0000
same,Clinical Response,[1]; Patient 11-040,NR
same,BM % Blasts Log2(C1/C0),[1]; Patient 11-040,0.4021
same,Clinical Response,[1]; Patient 12-041,NR
same,BM % Blasts Log2(C1/C0),[1]; Patient 12-041,0.6951
same,median duration of CR/CRi,[1]; decitabine arm,5.5 months
same,median number of cycles to achieve CR/CRi,[1]; decitabine arm,4 cycles
same,range of duration of CR/CRi,[1]; decitabine arm,1.5-11.5 months
same,range of number of cycles to achieve CR/CRi,[1]; decitabine arm,1-7 cycles
same,"Overall response rate (ORR: CR, CRi, MLFS, PR)",[1]; decitabine arm (7/21 patients),33%
same,patients with ≥50% reduction in bone marrow blasts,"[1]; decitabine arm, 18 patients with evaluable bone marrow biopsy",44%
same,patients with MLFS,"[1]; decitabine arm, Phase 1b",one
same,patients with PR,"[1]; decitabine arm, Phase 1b",one
same,CR/CRi rate,"[1]; decitabine arm, Phase 1b, 21 evaluable patients, all doses",24%
same,median number of cycles to achieve CR/CRi,[1]; responders of both arms (n=6),3 cycles
same,range of number of cycles to achieve CR/CRi,[1]; responders of both arms (n=6),1-7 cycles
same,Cmax and AUC0-24 versus dose,"[2]; both arms, 12-90 mg/m^2",increased proportionally with the administrated dose
same,Cmax,[2]; [5],163 ± 90 nM
same,Tmax,[2]; [5],2.5 ± 0.6 h
same,AUC(0-t),[2]; [5],2.27 µM·h
same,half-life,"[2]; 12 mg/m^2, Cycle 1 day 5, mean ± SD, 12 mg/m^2 + Decitabine, 4 patients, read-out: t1/2 (converted)",26 ± 16 h
same,Cmax,[2]; [6],153 ± 84 nM
same,Tmax,[2]; [6],2 ± 1 h
same,AUC(0-t),[2]; [6],2.15 µM·h
same,half-life,"[2]; 12 mg/m^2, Cycle 1 day 5, mean ± SD, 12 mg/m^2 + LDAC, 3 patients, read-out: t1/2 (converted)",32 ± 21 h
same,Cmax,[2]; [7],230 ± 129 nM
same,Tmax,[2]; [7],2.7 ± 0.6 h
same,AUC(0-t),[2]; [7],3.38 µM·h
same,half-life,"[2]; 18 mg/m^2, Cycle 1 day 5, mean ± SD, 18 mg/m^2 + Decitabine, 3 patients, read-out: t1/2 (converted)",21 ± 7 h
same,Cmax,[2]; [8],109 ± 39 nM
same,Tmax,[2]; [8],3 ± 1 h
same,AUC(0-t),[2]; [8],1.73 µM·h
same,half-life,"[2]; 18 mg/m^2, Cycle 1 day 5, mean ± SD, 18 mg/m^2 + LDAC, 3 patients, read-out: t1/2 (converted)",33 ± 18 h
same,half-life,"[2]; 40 mg/m^2, Cycle 1 day 5, mean ± SD, 40 mg/m^2 + Decitabine, 4 patients, read-out: t1/2 (converted)",25 ± 15 h
same,Cmax,[2]; [9],350 ± 104 nM
same,Tmax,[2]; [9],1.7 ± 1.2 h
same,AUC(0-t),[2]; [9],4.27 µM·h
same,half-life,"[2]; 40 mg/m^2, Cycle 1 day 5, mean ± SD, 40 mg/m^2 + LDAC, 3 patients, read-out: t1/2 (converted)",16 ± 7 h
same,Cmax,[2]; [10],1040 nM
same,Tmax,[2]; [10],3.3 ± 1.2 h
same,AUC(0-t),[2]; [10],16.3 µM·h
same,half-life,"[2]; 60 mg/m^2, Cycle 1 day 5, mean ± SD, 60 mg/m^2 + Decitabine, 3 patients, read-out: t1/2 (converted)",47 ± 8 h
same,Cmax,[2]; [11],905 ± 330 nM
same,Tmax,[2]; [11],2.4 ± 1.1 h
same,AUC(0-t),[2]; [11],12.7 µM·h
same,half-life,"[2]; 60 mg/m^2, Cycle 1 day 5, mean ± SD, 60 mg/m^2 + LDAC, 5 patients, read-out: t1/2 (converted)",37 ± 13 h
same,Cmax,[2]; [12],1310 nM
same,AUC(0-t),[2]; [12],21.8 µM·h
same,half-life,"[2]; 90 mg/m^2, Cycle 1 day 5, mean ± SD, 90 mg/m^2 + Decitabine, 6 patients, read-out: t1/2 (converted)",30 ± 11 h
same,Cmax,[2]; [13],4110 ± 118 nM
same,Tmax,[2]; [13],2 ± 1.7 h
same,AUC(0-t),[2]; [13],5.42 µM·h
same,half-life,"[2]; Cycle 1 day 5, mean ± SD, 27 mg/m^2 + Decitabine, 3 patients, read-out: t1/2 (converted)",16 ± 6 h
same,Cmax,[2]; [14],340 ± 219 nM
same,Tmax,[2]; [14],2.7 ± 1.5 h
same,AUC(0-t),[2]; [14],4.47 µM·h
same,half-life,"[2]; Cycle 1 day 5, mean ± SD, 27 mg/m^2 + LDAC, 3 patients, read-out: t1/2 (converted)",18 ± 5 h
same,Cmax,[2]; [15],539 ± 228 nM
same,Tmax,[2]; [15],3.3 ± 1 h
same,AUC(0-t),[2]; [15],8.05 µM·h
same,Tmax,"[2]; day 5 of cycle 1, across doses and arms",1.7 to 3.3 h
same,half-life,"[2]; day 5 of cycle 1, all patients, read-out: median half-life (t1/2) (converted)",26.4 h
same,half-life,"[2]; day 5 of cycle 1, all patients, read-out: range of half-life (t1/2)",16 to 46.5 h
same,patients with target engagement (≥50% decrease in pTCTP/TCTP at 3 hours postdose versus predose),[3]; 24 evaluable patients with at least 10% circulating blasts,33%
same,patients with ≥20% decrease in bone marrow blasts,[3]; nontarget engagement patients (2 of 11),18%
same,patients with ≥20% decrease in bone marrow blasts,[3]; target engagement patients (4 of 6),67%
